# Assay results reported in patent US3988462A (priority 1972, dated 1976).
# Read-outs that look alike come from different tables or passages of the source.
# Key:
# [1] = test system: influenza virus-A2 /Kumamoto; type: in vivo, mice
# mycoplasma = type: cell-based
# [2] = Cytotoxicity, tube dilution method; type: cell-based; settings: read-out: Minimum Inhibitory Concentration, tube dilution method
# Description: (§1) A solution containing Antibiotic TS-885 was prepared as follows to determine the biological activity of Antibiotic TS-885. A 100 mg amount of 3-(5,7-dimethyl-2-hydroxy-4-oxo-6,8-decadienyl)-glutarimide (Antibiotic TS-885) was dissolved in a mixture of 0.6 ml of dimethyl-sulfoxide and 0.02 ml of polyoxyethylene sorbitane monolaurate (EO : 20). A 1.0 ml amount of a stirred saline solution (0.01 M phosphate buffered saline, pH 7.2) was added to the mixture to form a uniform solution which was followed by the addition of 48 ml of the saline solution. By this procedure a stock solution of Antibiotic TS-885 having a concentration of 2 mg/ml was prepared. The stock solution was diluted with the buffer solution for the following tests.
# (§2) The cytotoxicity of Antibiotic TS-885 against various tissue culture cells was observed by the following two methods:
# b. a tube dilution method
# (§3) After 24 hours, the medium was removed and the plates were overlaid with 5 ml of an agar medium and one cylinder was placed on the medium. A 0.25 ml amount of a test sample was placed in the cylinder. After maintaining the plates for 2 hours at room temperature to diffuse Antibiotic TS-885 into the agar, the plate was incubated in the CO2 incubator at 37° C. After 48 hours, the cytotoxic effect of Antibiotic TS-885 was determined by the size of the diameter of the growth inhibitory zone around the cylinder. (2) In the tube dilution method, 2 × 10^5 cells were inoculated into a small test tube, and the tubes were incubated at 37° C for 24 hours. Solutions containing various concentrations of Antibiotic TS-885 were added to tubes of the cells and reincubated at […]. After 48 hours, the degenerated cells were microscopically observed.
# [3] = test system: mouse ascites tumor cells (Sarcoma 180); experiment: Antitumor effect in mice; type: in vivo; settings: intraperitoneally, once daily for six days
# Description: 1,000,000 mouse ascites tumor cells (Sarcoma 180) were transplanted intraperitoneally into mice. 24 Hours after the mice were treated with the transplanted tumor cells, the mice were injected with various doses of the antibiotic once daily for six days intraperitoneally. […] It is that the life span of the antibiotic treated mice was prolonged.
# [4] = test system: Hansenula anomala IFO 0118; experiment: Antimicrobial activity (Table III); type: cell-based; settings: IFO0118, Malt Agar (M.A.), read-out: Minimum inhibitory concentration
# Description: as §1
# (§4) The antimicrobial spectra were observed by the pulp disc diffusion method and the agar streak method, and the results are shown in Tables II and III.
# [5] = test system: Phodotorula glutinis IFO 0754; experiment: Antimicrobial activity (Table III); type: cell-based; settings: Malt Agar (M.A.); read-out: Minimum inhibitory concentration
# Description: as §1, §4
# R. rubra IFO 0001 = experiment: Antimicrobial activity (Table III); type: cell-based; settings: Malt Agar (M.A.); read-out: Minimum inhibitory concentration
# Description: as §1, §4
# Candida alibicans = experiment: Antimicrobial activity (Table III); type: cell-based; settings: Sabouraud's agar (S.A.), read-out: Minimum inhibitory concentration
# Description: as §1, §4
# [6] = test system: Saccharomyces fragilis IAM 7160; experiment: Antimicrobial activity (Table III); type: cell-based; settings: IAM7160, Malt Agar (M.A.), read-out: Minimum inhibitory concentration
# Description: as §1, §4
# [7] = test system: Saccharomyces sake HUT 7119; experiment: Antimicrobial activity (Table III); type: cell-based; settings: HUT7119, Malt Agar (M.A.), read-out: Minimum inhibitory concentration
# Description: as §1, §4
# Torula rubra var alpa = experiment: Antimicrobial activity (Table III); type: cell-based; settings: Malt Agar (M.A.), read-out: Minimum inhibitory concentration
# Description: as §1, §4
# [8] = test system: Cryptococcus albidus IFO 0378; experiment: Antimicrobial activity (Table III); type: cell-based; settings: Naganishia albida, IFO0378; Malt Agar (M.A.); read-out: Minimum inhibitory concentration
# Description: as §1, §4
# [9] = test system: Saccharomyces rosei AHU 3174; experiment: Antimicrobial activity (Table III); type: cell-based; settings: Torulaspora delbrueckii, AHU3174; Malt Agar (M.A.); read-out: Minimum inhibitory concentration
# Description: as §1, §4
# [10] = test system: Brettanomyces anomalus IFO 0648; experiment: Antimicrobial activity (Table III); type: cell-based; settings: IFO0648, Malt Agar (M.A.), read-out: Minimum inhibitory concentration
# Description: as §1, §4
# Trychophyton rubrum = experiment: microbe, parasite or virus in culture; type: cell-based; settings: read-out: Minimum inhibitory concentration
# Candida tropicalis = experiment: microbe, parasite or virus in culture; type: cell-based; settings: read-out: Minimum inhibitory concentration
# Mycoplasma pneumoniae = experiment: microbe, parasite or virus in culture; type: cell-based; settings: read-out: Minimum inhibitory concentration
# [11] = test system: Staphylococcus aureus 209P; experiment: microbe, parasite or virus in culture; type: cell-based; settings: read-out: Minimum inhibitory concentration
# yeasts = type: cell-based
# poliovirus [12] = type: cell-based
# bacteria = type: cell-based
# [13] = Serum concentration after intravenous injection in mice; settings: mouse
# [14] = Cytotoxicity, cylinder method; type: cell-based; settings: read-out: Minimum Inhibitory Concentration, cylinder method
# Description: as §1, §2
# a. a cylinder method (on a thin seed plate)
# a. A 10 ml amount of a cell suspension (3 × 10^5 cells/ml) was seeded in a petri dish having a diameter of 90 mm. The plates were incubated in a CO2 incubator at 37° C.
# as §3
# [15] = test system: Vesicular stomatitis virus; experiment: microbe, parasite or virus in culture; type: cell-based
# Candida utilis IFO 0396 = experiment: microbe, parasite or virus in culture; type: cell-based; settings: Williopsis jadinii, IFO0396; read-out: Minimum inhibitory concentration
# [16] = Toxicity in mice, repeated intravenous administration; type: in vivo; settings: 20 mg/kg per day intravenous, once daily for 10 days (total 200 mg/kg)
# Solubility = type: physicochemical
# [17] = test system: Candida parapsiiosis IFO 0708; experiment: microbe, parasite or virus in culture; type: cell-based; settings: IFO0708, read-out: Minimum inhibitory concentration
# poliovirus [18] = experiment: microbe, parasite or virus in culture; type: cell-based
# [19] = cited from earlier work
# [20] = chicken, chick embryo fibroblast cells, MEM medium
# [21] = human, hela s3 cells, YLE medium
# [22] = monkey, monkey kidney cells, MEM medium
# [23] = Vesicular stomatitis virus, in Gallus gallus, read-out: Diameter of plaque free zone
# [24] = Enterovirus C, read-out: Diameter of plaque free zone
compound,measurement,setting,value
"NC12CC3CC(CC(C3)C1)C2 [Amantadine, 1,Adamantylamine, reference compound]",Survival / treated × 100 %,"[1]; 20 mg/kg, survival day 7",100%
same,Survival / treated × 100 %,"[1]; 20 mg/kg, survival day 10",60%
same,Survival / treated × 100 %,"[1]; 20 mg/kg, survival day 13",10%
same,Survival / treated × 100 %,"[1]; 20 mg/kg, survival day 15",0%
same,Survival / treated × 100 %,"[1]; 20 mg/kg, survival day 20",0%
"CC=CC(C)=CC(C)C(=O)CC(O)CC1CC(=O)NC(=O)C1 (stereo not shown) [Antibiotic TS-885, 3-(5,7-dimethyl-2-hydroxy-4-oxo-6,8-decadienyl)-glutarimide]",antimycoplasmal activity,mycoplasma,no antibacterial and antimycoplasmal activity
same,MCC at 48 h,[2]; [20],1 µg/mL
same,MCC at 48 h,[2]; [21],0.4 µg/mL
same,MCC at 48 h,"[2]; human, p3 hr-1 cells, MEM medium",0.4 µg/mL
same,MCC at 48 h,[2]; [22],0.4 µg/mL
same,MCC at 48 h,"[2]; mouse, l-cells, YLE medium",0.5 µg/mL
same,growth of the ascites tumor,[3]; 2.5 mg/mouse per day,inhibits growth of the ascites tumor
same,life span of the antibiotic treated mice,[3],prolonged
same,Survival / treated × 100 %,"[1]; 7 mg/kg intraperitoneally, survival day 7",100%
same,Survival / treated × 100 %,"[1]; 7 mg/kg intraperitoneally, survival day 10",60%
same,Survival / treated × 100 %,"[1]; 7 mg/kg intraperitoneally, survival day 13",35%
same,Survival / treated × 100 %,"[1]; 7 mg/kg intraperitoneally, survival day 15",35%
same,Survival / treated × 100 %,"[1]; 7 mg/kg intraperitoneally, survival day 20",35%
same,Survival / treated × 100 %,"[1]; 22 mg/kg intraperitoneally, survival day 7",100%
same,Survival / treated × 100 %,"[1]; 22 mg/kg intraperitoneally, survival day 10",80%
same,Survival / treated × 100 %,"[1]; 22 mg/kg intraperitoneally, survival day 13",50%
same,Survival / treated × 100 %,"[1]; 22 mg/kg intraperitoneally, survival day 15",50%
same,Survival / treated × 100 %,"[1]; 22 mg/kg intraperitoneally, survival day 20",50%
same,survival rate,"[1]; 22 mg/kg, day not stated (footnote to Table VIII)",50%
same,MIC,[4],20 µg/mL
same,MIC,[5],100 µg/mL
same,MIC,R. rubra IFO 0001,20 µg/mL
same,MIC,Candida alibicans,> 100 µg/mL
same,MIC,[6],20 µg/mL
same,MIC,[7],4 µg/mL
same,MIC,Torula rubra var alpa,4 µg/mL
same,MIC,[8],4 µg/mL
same,MIC,[9],100 µg/mL
same,MIC,[10],> 100 µg/mL
same,MIC,Trychophyton rubrum,1000 µg/mL
same,MIC,Candida tropicalis,100 µg/mL
same,MIC,Mycoplasma pneumoniae,> 1000 µg/mL
same,MIC,[11],> 1000 µg/mL
same,inhibitory activity against some yeasts,yeasts,inhibitory activity against some yeasts
same,Antiviral effect,poliovirus [12]; 0.5 mcg/ml,Toxic
same,Antiviral effect,poliovirus [12]; 1 mcg/ml,Toxic
same,Antiviral effect,poliovirus [12]; 10 mcg/ml,Toxic
same,antibacterial activity,bacteria,no antibacterial
same,concentration at 10 min,[13]; 2.5 mg/kg,1800 ng/mL
same,concentration at 0.5 h,[13]; 2.5 mg/kg,580 ng/mL
same,concentration at 10 min,[13]; 25 mg/kg,2900 ng/mL
same,concentration at 0.5 h,[13]; 25 mg/kg,2400 ng/mL
same,MCC at 48 h,[14]; [20],0.5 µg/mL
same,MCC at 48 h,[14]; [21],0.2 µg/mL
same,MCC at 48 h,[14]; [22],0.2 µg/mL
same,MCC at 48 h,"[14]; mouse, l-cells, YLE medium",0.25 µg/mL
same,Antiviral effect,[15]; 20 mcg/ml,toxic
same,Antiviral effect,[15]; 62.5 mcg/ml,toxic
same,Antiviral effect,[15]; 100 mcg/ml,toxic
same,Antiviral effect,[15]; 125 mcg/ml,toxic
same,Antiviral effect,[15]; 250 mcg/ml,toxic
same,zone of inhibition at 0.3 µg/mL,[15]; [23],15.4 mm
same,zone of inhibition at 0.6 µg/mL,[15]; [23],17.4 mm
same,zone of inhibition at 1.25 µg/mL,[15]; [23],18.1 mm
same,zone of inhibition at 2.5 µg/mL,[15]; [23],18.9 mm
same,zone of inhibition at 5 µg/mL,[15]; [23],19.6 mm
same,zone of inhibition at 10 µg/mL,[15]; [23],22.9 mm
same,zone of inhibition at 20 µg/mL,[15]; [23],26.2 mm
same,zone of inhibition at 62.5 µg/mL,[15]; [23],28.8 mm
same,zone of inhibition at 100 µg/mL,[15]; [23],31.7 mm
same,zone of inhibition at 125 µg/mL,[15]; [23],33.2 mm
same,zone of inhibition at 250 µg/mL,[15]; [23],42 mm
same,MIC,Candida utilis IFO 0396,100 µg/mL
same,signs of toxicity,[16],No signs of toxicity were observed
same,Solubility,"Solubility; acetone, chloroform, benzene, ethylacetate, ethanol, methanol, 1% aqueous sodium hydroxide solution, and pyridine",Soluble
same,Solubility,"Solubility; benzene, ethyl acetate, acetone, ethanol 1% NaOH",Soluble
same,Solubility,Solubility; ether,Sparingly soluble
same,Solubility,Solubility; water,water insoluble
same,Solubility,Solubility; water and 5% aqueous hydrochloric acid,Insoluble
same,MIC,[17],> 100 µg/mL
same,Antiviral effect,poliovirus [18]; 12.5 mcg/ml,toxic
same,Antiviral effect,poliovirus [18]; 25 mcg/ml,toxic
same,zone of inhibition at 0.5 µg/mL,poliovirus [18]; [24],15 mm
same,zone of inhibition at 1 µg/mL,poliovirus [18]; [24],19.4 mm
same,zone of inhibition at 5 µg/mL,poliovirus [18]; [24],25 mm
same,zone of inhibition at 6.25 µg/mL,poliovirus [18]; [24],28.4 mm
same,zone of inhibition at 12.5 µg/mL,poliovirus [18]; [24],29.2 mm
same,zone of inhibition at 25 µg/mL,poliovirus [18]; [24],36 mm
C=C/C(C)=C/[C@H](C)C(=O)C[C@H](O)CC1CC(=O)NC(=O)C1 [Streptimidone],Solubility,"[19]; benzene, ethyl acetate, acetone, ethanol",Soluble
same,Solubility,[19]; water,insoluble
